Here are results for one compound from publication PMC13249053, “Mechanism of auranofin toxicity: Inhibition of tetrahydrobiopterin metabolism” (Toxicology and applied pharmacology, 2025).

This experiment concerns BH4 formation in HaCaT cells. The experiment can be described thus: BH4 formation from sepiapterin in intact HaCaT cells (HPLC). The following applies: MTX 1 μM, 2 h, then 200 μM sepiapterin 3 h; BH2 accumulates. In kind it is cell-based, human. On the procedure:
The growth medium was then removed and the cells incubated with growth medium containing 100 μM sepiapterin. […] BH2 and BH4 were then analyzed on a Jasco high-performance liquid chromatography system (Easton, MD) fitted with a Maxsil-10 C18 column (250 × 4 mm; Phenomenex, Torrance, CA). […] Cell viability following drug treatments was greater than 95 %.
Fig. 3. Effects of auranofin on BH2 and BH4 production in intact HaCaT cells treated with sepiapterin. HaCaT cells (~1 × 10^6 cells/well in 6 well culture plates) were incubated with control medium or medium containing increasing concentrations of auranofin for 2 h followed by 100 μM sepiapterin. After an additional 3 h, BH2 and BH4 were extracted from the cells and analyzed by HPLC with fluorescence detection. Left panel: Chromatograms showing BH2 and BH4 content of control cells and cells treated with Auranofin.
Fig. 6. […] Cells were treated with control medium or medium containing MTX (1 μM, 2 h), an inhibitor of DHFR, followed by 200 μM sepiapterin (upper panel) or BH2 (lower panel). After an additional 3 h incubation, cells were rinsed with PBS; BH2 and BH4 were then extracted and analyzed by HPLC as described in the Materials and Methods.

As to `CN(Cc1cnc2nc(N)nc(N)c2n1)c1ccc(C(=O)N[C@@H](CCC(=O)O)C(=O)O)cc1` [methotrexate], the “effect on formation of BH4 from sepiapterin in HaCaT cells” value is on record as “inhibit the formation of BH4 from sepiapterin”.
